{
  "source": "ChEMBL document CHEMBL2157968",
  "about": "“Novel multipotent phenylthiazole-tacrine hybrids for the inhibition of cholinesterase activity, β-amyloid aggregation and Ca²⁺ overload” (Bioorg Med Chem, 2012)",
  "note": "The source made the active and inactive calls. The calls are words filed in the database; no cut-off is given here.",
  "data": [
    {"molecular_target": "Acetylcholinesterase (Electrophorus electricus, UniProt O42275)", "sequence (O42275 whole entry)": "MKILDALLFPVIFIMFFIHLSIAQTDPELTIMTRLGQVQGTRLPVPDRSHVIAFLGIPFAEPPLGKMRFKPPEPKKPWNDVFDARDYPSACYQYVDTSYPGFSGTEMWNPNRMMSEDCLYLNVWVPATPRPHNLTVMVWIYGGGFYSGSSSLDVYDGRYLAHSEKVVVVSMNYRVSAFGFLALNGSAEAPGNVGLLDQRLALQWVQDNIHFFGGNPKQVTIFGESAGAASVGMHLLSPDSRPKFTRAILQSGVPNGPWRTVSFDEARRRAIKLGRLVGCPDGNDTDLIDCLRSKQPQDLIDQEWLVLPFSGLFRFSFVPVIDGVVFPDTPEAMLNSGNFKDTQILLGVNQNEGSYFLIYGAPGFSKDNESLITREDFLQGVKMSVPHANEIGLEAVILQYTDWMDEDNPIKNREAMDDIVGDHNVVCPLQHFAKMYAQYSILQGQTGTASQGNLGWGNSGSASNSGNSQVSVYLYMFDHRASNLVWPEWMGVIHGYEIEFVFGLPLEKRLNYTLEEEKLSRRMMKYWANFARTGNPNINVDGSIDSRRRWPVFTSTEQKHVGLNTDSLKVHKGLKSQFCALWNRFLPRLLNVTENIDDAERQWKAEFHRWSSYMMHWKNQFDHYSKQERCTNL", "units": {"IC50": "nM"}, "description": "Inhibition of electric eel AChE using acetylthiocholine chloride substrate incubated for 5 mins before substrate addition measured at 3 min interval by Ellman method", "values": [
      {"smiles": "CCN(CCCNc1c2c(nc3ccccc13)CCCC2)CCC(=O)Nc1nc(-c2ccc(OC)cc2)cs1", "IC50": 97.7},
      {"smiles": "CCN(CCCCCCNc1c2c(nc3ccccc13)CCCC2)CC(=O)Nc1nc(-c2ccccc2)cs1", "IC50": 81.3},
      {"smiles": "O=C(CCCC(=O)Nc1nc(-c2ccccc2)cs1)NCCCCNc1c2c(nc3ccccc13)CCCC2", "IC50": 282},
      {"smiles": "CCN(CCCCNc1c2c(nc3ccccc13)CCCC2)CC(=O)Nc1nc(-c2ccc(Cl)cc2)cs1", "IC50": 1620},
      {"smiles": "O=C(CCC(=O)Nc1nc(-c2ccccc2)cs1)NCCCCCCNc1c2c(nc3ccccc13)CCCC2", "IC50": 72.4},
      {"smiles": "CCN(CCCCNc1c2c(nc3ccccc13)CCCC2)CC(=O)Nc1nc(-c2ccc(OC)cc2)cs1", "IC50": 1660},
      {"smiles": "O=C(CCCC(=O)Nc1nc(-c2ccccc2)cs1)NCCCNc1c2c(nc3ccccc13)CCCC2", "IC50": 380},
      {"smiles": "CCN(CCCNc1c2c(nc3ccccc13)CCCC2)CCC(=O)Nc1nc(-c2ccccc2)cs1", "IC50": 324},
      {"smiles": "CCN(CCCNc1c2c(nc3ccccc13)CCCC2)CCC(=O)Nc1nc(-c2ccc(Cl)cc2)cs1", "IC50": 1200},
      {"smiles": "CCN(CCCCCCNc1c2c(nc3ccccc13)CCCC2)CC(=O)Nc1nc(-c2ccc(OC)cc2)cs1", "IC50": 158},
      {"smiles": "O=C(CCC(=O)Nc1nc(-c2ccccc2)cs1)NCCCCNc1c2c(nc3ccccc13)CCCC2", "IC50": 490},
      {"smiles": "CCN(CCCNc1c2c(nc3ccccc13)CCCC2)CC(=O)Nc1nc(-c2ccccc2)cs1", "IC50": 105},
      {"smiles": "CCN(CCCCNc1c2c(nc3ccccc13)CCCC2)CC(=O)Nc1nc(-c2ccccc2)cs1", "IC50": 158},
      {"smiles": "CCN(CCCNc1c2c(nc3ccccc13)CCCC2)CC(=O)Nc1nc(-c2ccc(OC)cc2)cs1", "IC50": 1380},
      {"smiles": "CCN(CCCCNc1c2c(nc3ccccc13)CCCC2)CCC(=O)Nc1nc(-c2ccc(OC)cc2)cs1", "IC50": 288},
      {"smiles": "CCN(CCCCNc1c2c(nc3ccccc13)CCCC2)CCC(=O)Nc1nc(-c2ccccc2)cs1", "IC50": 110},
      {"smiles": "O=C(CCC(=O)Nc1nc2c(s1)CCCC2)NCCCCNc1c2c(nc3ccccc13)CCCC2", "IC50": 1260},
      {"smiles": "O=C(CCC(=O)Nc1nc(-c2ccc(Cl)cc2)cs1)NCCCCNc1c2c(nc3ccccc13)CCCC2", "IC50": 1350},
      {"smiles": "CCN(CCCCNc1c2c(nc3ccccc13)CCCC2)CCC(=O)Nc1nc(-c2ccc(Cl)cc2)cs1", "IC50": 120}
    ]},
    {"molecular_target": "Cholinesterase (Equus caballus, UniProt P81908)", "sequence (P81908 whole entry)": "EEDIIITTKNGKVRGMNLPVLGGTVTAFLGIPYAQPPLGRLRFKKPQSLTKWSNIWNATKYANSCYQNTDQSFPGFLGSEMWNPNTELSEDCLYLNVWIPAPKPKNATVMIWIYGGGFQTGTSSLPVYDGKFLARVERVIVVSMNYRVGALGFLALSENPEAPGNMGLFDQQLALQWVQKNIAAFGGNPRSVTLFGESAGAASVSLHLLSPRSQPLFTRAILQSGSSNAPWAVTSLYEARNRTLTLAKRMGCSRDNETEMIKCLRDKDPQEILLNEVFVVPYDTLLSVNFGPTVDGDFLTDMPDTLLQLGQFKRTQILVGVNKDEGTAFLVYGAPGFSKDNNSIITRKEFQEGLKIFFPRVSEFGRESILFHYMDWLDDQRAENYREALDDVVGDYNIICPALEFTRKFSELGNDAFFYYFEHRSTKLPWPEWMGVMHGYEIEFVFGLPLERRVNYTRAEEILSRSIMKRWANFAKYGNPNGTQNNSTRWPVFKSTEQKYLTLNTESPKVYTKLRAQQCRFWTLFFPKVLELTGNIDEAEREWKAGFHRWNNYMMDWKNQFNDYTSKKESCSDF", "units": {"IC50": "nM"}, "description": "Inhibition of equine serum BuChE using butyrylthiocholine chloride substrate incubated for 5 mins before substrate addition measured at 3 min interval by Ellman method", "values": [
      {"smiles": "CCN(CCCNc1c2c(nc3ccccc13)CCCC2)CCC(=O)Nc1nc(-c2ccc(OC)cc2)cs1", "IC50": 0.479},
      {"smiles": "CCN(CCCCCCNc1c2c(nc3ccccc13)CCCC2)CC(=O)Nc1nc(-c2ccccc2)cs1", "IC50": 468},
      {"smiles": "O=C(CCCC(=O)Nc1nc(-c2ccccc2)cs1)NCCCCNc1c2c(nc3ccccc13)CCCC2", "IC50": 0.55},
      {"smiles": "CCN(CCCCNc1c2c(nc3ccccc13)CCCC2)CC(=O)Nc1nc(-c2ccc(Cl)cc2)cs1", "IC50": 77.6},
      {"smiles": "O=C(CCC(=O)Nc1nc(-c2ccccc2)cs1)NCCCCCCNc1c2c(nc3ccccc13)CCCC2", "IC50": 0.355},
      {"smiles": "CCN(CCCCNc1c2c(nc3ccccc13)CCCC2)CC(=O)Nc1nc(-c2ccc(OC)cc2)cs1", "IC50": 20.4},
      {"smiles": "O=C(CCCC(=O)Nc1nc(-c2ccccc2)cs1)NCCCNc1c2c(nc3ccccc13)CCCC2", "IC50": 1780},
      {"smiles": "CCN(CCCNc1c2c(nc3ccccc13)CCCC2)CCC(=O)Nc1nc(-c2ccccc2)cs1", "IC50": 6.03},
      {"smiles": "CCN(CCCNc1c2c(nc3ccccc13)CCCC2)CCC(=O)Nc1nc(-c2ccc(Cl)cc2)cs1", "IC50": 4.17},
      {"smiles": "CCN(CCCCCCNc1c2c(nc3ccccc13)CCCC2)CC(=O)Nc1nc(-c2ccc(OC)cc2)cs1", "IC50": 589},
      {"smiles": "O=C(CCC(=O)Nc1nc(-c2ccccc2)cs1)NCCCCNc1c2c(nc3ccccc13)CCCC2", "IC50": 0.603},
      {"smiles": "CCN(CCCNc1c2c(nc3ccccc13)CCCC2)CC(=O)Nc1nc(-c2ccccc2)cs1", "IC50": 0.0447},
      {"smiles": "CCN(CCCCNc1c2c(nc3ccccc13)CCCC2)CC(=O)Nc1nc(-c2ccccc2)cs1", "IC50": 14.8},
      {"smiles": "CCN(CCCNc1c2c(nc3ccccc13)CCCC2)CC(=O)Nc1nc(-c2ccc(OC)cc2)cs1", "IC50": 275},
      {"smiles": "CCN(CCCCNc1c2c(nc3ccccc13)CCCC2)CCC(=O)Nc1nc(-c2ccc(OC)cc2)cs1", "IC50": 6.61},
      {"smiles": "CCN(CCCCNc1c2c(nc3ccccc13)CCCC2)CCC(=O)Nc1nc(-c2ccccc2)cs1", "IC50": 18.2},
      {"smiles": "O=C(CCC(=O)Nc1nc2c(s1)CCCC2)NCCCCNc1c2c(nc3ccccc13)CCCC2", "IC50": 363},
      {"smiles": "O=C(CCC(=O)Nc1nc(-c2ccc(Cl)cc2)cs1)NCCCCNc1c2c(nc3ccccc13)CCCC2", "IC50": 16.6},
      {"smiles": "CCN(CCCCNc1c2c(nc3ccccc13)CCCC2)CCC(=O)Nc1nc(-c2ccc(Cl)cc2)cs1", "IC50": 45.7}
    ]},
    {"molecular_target": "Acetylcholinesterase (Electrophorus electricus) (UniProt O42275)", "sequence (O42275 24-633 limits assumed)": "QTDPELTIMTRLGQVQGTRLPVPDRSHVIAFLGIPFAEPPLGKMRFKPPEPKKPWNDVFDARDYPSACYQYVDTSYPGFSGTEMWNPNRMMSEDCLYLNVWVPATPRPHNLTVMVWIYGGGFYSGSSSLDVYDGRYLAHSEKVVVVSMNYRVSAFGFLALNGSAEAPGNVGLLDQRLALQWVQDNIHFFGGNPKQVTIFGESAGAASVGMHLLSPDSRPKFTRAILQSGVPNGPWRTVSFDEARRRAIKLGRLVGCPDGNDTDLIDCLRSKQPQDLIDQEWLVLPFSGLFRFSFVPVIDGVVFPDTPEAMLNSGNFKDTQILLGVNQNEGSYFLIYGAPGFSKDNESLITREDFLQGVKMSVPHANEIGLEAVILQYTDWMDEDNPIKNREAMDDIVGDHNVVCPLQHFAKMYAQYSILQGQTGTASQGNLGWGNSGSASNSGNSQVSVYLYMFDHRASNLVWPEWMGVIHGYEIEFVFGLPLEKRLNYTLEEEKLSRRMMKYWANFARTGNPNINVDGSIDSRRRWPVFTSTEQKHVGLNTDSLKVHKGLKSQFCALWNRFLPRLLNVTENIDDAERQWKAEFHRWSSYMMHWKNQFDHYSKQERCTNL", "experiment": "Mixed type inhibition of electric eel AChE using acetylthiocholine chloride substrate incubated for 5 mins before substrate addition measured at 3 min interval by Lineweaver-Burk plot analysis", "values": [
      {"smiles": "O=C(CCC(=O)Nc1nc(-c2ccccc2)cs1)NCCCCCCNc1c2c(nc3ccccc13)CCCC2", "inhibition": "Active"}
    ]},
    {"system": "Cerebral cortex neuron", "experiment": "Inhibition of KCl-induced Ca2+ overload in Sprague-Dawley rat primary cortical neurons assessed as reduction in F340/F380 fluorescence ratio at 1 uM by Fura-2/AM-based fluorescence assay", "assay_type": "functional, cell-based", "values": [
      {"smiles": "CCN(CCCCCCNc1c2c(nc3ccccc13)CCCC2)CC(=O)Nc1nc(-c2ccc(OC)cc2)cs1", "inhibition": "inactive"}
    ]}
  ]
}
